In patent US6984754B1, “Aliphatic amino carboxylic and amino phosphonic acids amino nitriles and amino tetrazoles as cellular rescue agents” (University of Saskatchewan Technologies Inc., priority 1998, dated 2006):
Structures can show the parent of a compound that is named as a salt.

Experiments:
[1] = tested on: cerebellar granule cells (CGC); experiment: Antiapoptotic capacity (rescue) in cerebellar granule cells induced into apoptosis by cytosine arabinoside (CGC assay); type: cell-based, Wistar rat; settings: for Rescue by Amino Tetrazoles in the CGC Assay, Rescue (overall yes/no) / Rescue by Amino Acids and Esters in the CGC Assay, Rescue (overall yes/no) / Rescue by Amino Nitriles in the CGC Assay, Rescue (overall yes/no) / Rescue by Amino Phosphonic Acids in the CGC Assay, Rescue (overall yes/no): overall over 10^−6, 10^−9, 10^−12 M
Excerpt: In Vitro Protocol for Assessing the Antiapoptotic Capacity of Various Compounds in Cerebellar Granule Cells
Cultures of cerebellar granule cells (CGC) can be induced into apoptosis by the addition of a high concentration of cytosine arabinoside (AraC). It has been shown that this is a p53 dependent apoptosis. We have measured the antiapoptotic effect of some amino acids, amino esters, amino phosphonic acids, amino nitriles and amino tetrazoles using this system.
Cultures of CGC were obtained from 6-8 day old Wistar rat pups. Cultures were grown on glass in 35 mm petri dishes for three days and then used for experiments. Aliquots (20 ul) of drug solutions (AraC, anti-apoptotic drugs, drug vehicles) were added to the medium of the culture. 24 Hours later the cultures were fixed with FAM, and stained with bis-benzamide. Normal and apoptotic nuclei were counted to a total of 90-120 cells per culture.

[2] = compound 10^−6 M, AraC 300 uM-induced apoptosis, 24 hours
[3] = compound 10^−9 M, AraC 300 uM-induced apoptosis, 24 hours
[4] = compound 10^−12 M, AraC 300 uM-induced apoptosis, 24 hours

CCOC(=O)CNC(C)C (as salt: hydrochloride)
melting point: 120 to 121 °C

CCCCC[C@H](C)NCCC(=O)OC (stereo in doubt) (as salt: hydrochloride)
melting point: 89.5 to 90.5 °C

CCCCCC(C)NCCC(=O)O (stereo in doubt) (as salt: hydrochloride) [R-2-Heptyl (B-Alanines), (R)-3-(2-Heptylamino)propionic acid hydrochloride]
melting point: 57 to 58 °C

CCCCCC(C)NCCC#N (stereo in doubt) (as salt: hydrochloride) [R-2-Heptyl (Propionitriles), (R)-3-(2-Heptylamino)propionitrile hydrochloride]
melting point: 134 to 135 °C

CCCCCC(C)N(C)CCC#N (stereo in doubt) (as salt: hydrochloride) [R-2-Heptyl-N-methyl (Propionitriles), (R)-3-(2-Heptylmethylamino)propionitrile hydrochloride]
melting point: 98 to 98.5 °C

CCCCCC(C)NCC#N (stereo in doubt) (as salt: hydrochloride) [R-2-heptyl (Acetonitriles), (R)-2-(2-Heptylamino)acetonitrile hydrochloride]
melting point: 152 to 153 °C

CCCCCC(C)NCCc1nnn[nH]1 (stereo in doubt) [R-2-Heptyl (Amino Tetrazoles), (R)-2-(2-Heptylamino)ethane-5-tetrazole hydrochloride]
Rescue by Amino Tetrazoles in the CGC Assay, 10^−6 M [1, 2]: R | Rescue by Amino Tetrazoles in the CGC Assay, 10^−9 M [1, 3]: R | Rescue by Amino Tetrazoles in the CGC Assay, 10^−12 M [1, 4]: R | Rescue by Amino Tetrazoles in the CGC Assay, Rescue (overall yes/no) [1]: yes

CCCCCC(C)NCCC(=O)O (stereo in doubt) [R-2-Heptyl (B-Alanines), (R)-3-(2-Heptylamino)propionic acid hydrochloride]
Rescue by Amino Acids and Esters in the CGC Assay, 10^−9 M [1, 3]: R | Rescue by Amino Acids and Esters in the CGC Assay, 10^−12 M [1, 4]: R | Rescue by Amino Acids and Esters in the CGC Assay, Rescue (overall yes/no) [1]: yes

CCCCCC(C)NCC(=O)O (stereo in doubt) [R-2-Heptyl (Glycines), (R)-2-(2-Heptylamino)acetic acid hydrochloride]
Rescue by Amino Acids and Esters in the CGC Assay, Rescue (overall yes/no) [1]: no

CCCCCC(C)NCCC#N (stereo in doubt) [R-2-Heptyl (Propionitriles), (R)-3-(2-Heptylamino)propionitrile hydrochloride]
Rescue by Amino Nitriles in the CGC Assay, 10^−9 M [1, 3]: R | Rescue by Amino Nitriles in the CGC Assay, 10^−12 M [1, 4]: R | Rescue by Amino Nitriles in the CGC Assay, Rescue (overall yes/no) [1]: yes

CCCCCC(C)N(C)CCC#N (stereo in doubt) [R-2-Heptyl-N-methyl (Propionitriles), (R)-3-(2-Heptylmethylamino)propionitrile hydrochloride]
Rescue by Amino Nitriles in the CGC Assay, 10^−9 M [1, 3]: R | Rescue by Amino Nitriles in the CGC Assay, Rescue (overall yes/no) [1]: yes

CCCCCC(C)NCC#N (stereo in doubt) [R-2-heptyl (Acetonitriles), (R)-2-(2-Heptylamino)acetonitrile hydrochloride]
Rescue by Amino Nitriles in the CGC Assay, Rescue (overall yes/no) [1]: no

CCCCCCNCC#N.Cl [1-Hexyl (Acetonitriles), 2-(1-Hexylamino)acetonitrile hydrochloride]
Rescue by Amino Nitriles in the CGC Assay, 10^−9 M [1, 3]: R | Rescue by Amino Nitriles in the CGC Assay, 10^−12 M [1, 4]: R | Rescue by Amino Nitriles in the CGC Assay, Rescue (overall yes/no) [1]: yes

CCCCCCNCCP(=O)(O)O.Cl [1-Hexyl (Amino Phosphonic Acids), 2-(1-Hexylamino)ethanephosphonic acid hydrochloride]
Rescue by Amino Phosphonic Acids in the CGC Assay, Rescue (overall yes/no) [1]: no

CCCCCCNCCC(=O)OC [1-Hexyl (B-Alaninates), Methyl 3-(1-hexylamino)propionate hydrochloride]
Rescue by Amino Acids and Esters in the CGC Assay, 10^−9 M [1, 3]: R | Rescue by Amino Acids and Esters in the CGC Assay, 10^−12 M [1, 4]: R | Rescue by Amino Acids and Esters in the CGC Assay, Rescue (overall yes/no) [1]: yes

CCCCCCNCCC(=O)O [1-Hexyl (B-Alanines), 3(1-Hexylamino)propionic acid]
melting point: 95 to 97 °C | Rescue by Amino Acids and Esters in the CGC Assay, 10^−6 M [1, 2]: R | Rescue by Amino Acids and Esters in the CGC Assay, 10^−9 M [1, 3]: R | Rescue by Amino Acids and Esters in the CGC Assay, 10^−12 M [1, 4]: R | Rescue by Amino Acids and Esters in the CGC Assay, Rescue (overall yes/no) [1]: yes

CCCCCCNCC(=O)O.Cl [1-Hexyl (Glycines), 2-(1-Hexylamino)acetic acid hydrochloride]
Rescue by Amino Acids and Esters in the CGC Assay, 10^−9 M [1, 3]: R | Rescue by Amino Acids and Esters in the CGC Assay, Rescue (overall yes/no) [1]: yes

CCCCCCNCCC#N.Cl [1-Hexyl (Propionitriles), 3-(1-Hexylamino)propionitrile hydrochloride]
melting point: 188 to 189 °C | Rescue by Amino Nitriles in the CGC Assay, Rescue (overall yes/no) [1]: no

CC(C)NCC#N.Cl [2-Propyl (Acetonitriles), 2-(2-Propylamino)acetonitrile hydrochloride]
melting point: 166 to 167 °C | Rescue by Amino Nitriles in the CGC Assay, 10^−6 M [1, 2]: R | Rescue by Amino Nitriles in the CGC Assay, 10^−9 M [1, 3]: R | Rescue by Amino Nitriles in the CGC Assay, 10^−12 M [1, 4]: R | Rescue by Amino Nitriles in the CGC Assay, Rescue (overall yes/no) [1]: yes

CC(C)NCCP(=O)(O)O.Cl [2-Propyl (Amino Phosphonic Acids), 2-(2-Propylamino)ethanephosphonic acid hydrochloride]
melting point: 164 to 166 °C | Rescue by Amino Phosphonic Acids in the CGC Assay, 10^−6 M [1, 2]: R | Rescue by Amino Phosphonic Acids in the CGC Assay, 10^−9 M [1, 3]: R | Rescue by Amino Phosphonic Acids in the CGC Assay, 10^−12 M [1, 4]: R | Rescue by Amino Phosphonic Acids in the CGC Assay, Rescue (overall yes/no) [1]: yes

COC(=O)CCNC(C)C.Cl [2-Propyl (B-Alaninates), Methyl 3-(2-propylamino)propionate hydrochloride]
Rescue by Amino Acids and Esters in the CGC Assay, Rescue (overall yes/no) [1]: no

CC(C)NCCC(=O)O.Cl [2-Propyl (B-Alanines), 3-(2-Propylamino)propionic acid hydrochloride]
melting point: 154 to 155 °C | Rescue by Amino Acids and Esters in the CGC Assay, 10^−9 M [1, 3]: R | Rescue by Amino Acids and Esters in the CGC Assay, 10^−12 M [1, 4]: R | Rescue by Amino Acids and Esters in the CGC Assay, Rescue (overall yes/no) [1]: yes

CC(C)NCC(=O)O.Cl [2-Propyl (Glycines), 2-(2-Propylamino)acetic acid hydrochloride]
Rescue by Amino Acids and Esters in the CGC Assay, 10^−6 M [1, 2]: R | Rescue by Amino Acids and Esters in the CGC Assay, Rescue (overall yes/no) [1]: yes

CC(C)NCCC#N.Cl [2-Propyl (Propionitriles), 3-(2-Propylamino)propionitrile hydrochloride]
Rescue by Amino Nitriles in the CGC Assay, Rescue (overall yes/no) [1]: no

CC(C)N(C)CCC(=O)O [2-Propyl-N-methyl (B-Alanines), 3-(2-Propylmethylamino)propionic acid]
Rescue by Amino Acids and Esters in the CGC Assay, 10^−6 M [1, 2]: R | Rescue by Amino Acids and Esters in the CGC Assay, 10^−9 M [1, 3]: R | Rescue by Amino Acids and Esters in the CGC Assay, Rescue (overall yes/no) [1]: yes

CC(C)N(C)CCC#N.Cl [2-Propyl-N-methyl (Propionitriles), 3-(2-Propylmethylamino)propionitrile hydrochloride]
melting point: 121 to 121.5 °C | Rescue by Amino Nitriles in the CGC Assay, Rescue (overall yes/no) [1]: no

CCC(CC)NCCC#N.Cl [3-Pentyl (Propionitriles), 3-(3-Pentylamino)propionitrile hydrochloride]
melting point: 118.5 to 119.5 °C | Rescue by Amino Nitriles in the CGC Assay, 10^−6 M [1, 2]: R | Rescue by Amino Nitriles in the CGC Assay, 10^−9 M [1, 3]: R | Rescue by Amino Nitriles in the CGC Assay, Rescue (overall yes/no) [1]: yes

CCCCC[C@@H](C)NCCP(=O)(O)O.Cl [R-2-Heptyl (Amino Phosphonic Acids), (R)-2-(2-Heptylamino)ethanephosphonic acid hydrochloride]
Rescue by Amino Phosphonic Acids in the CGC Assay, Rescue (overall yes/no) [1]: yes*

CCCCC[C@@H](C)N(C)CCC(=O)OC.Cl [R-2-Heptyl-N-methyl (B-Alaninates), (R)-Methyl 3-(2-heptylmethylamino)propionate hydrochloride]
Rescue by Amino Acids and Esters in the CGC Assay, 10^−6 M [1, 2]: R | Rescue by Amino Acids and Esters in the CGC Assay, 10^−9 M [1, 3]: R | Rescue by Amino Acids and Esters in the CGC Assay, 10^−12 M [1, 4]: R | Rescue by Amino Acids and Esters in the CGC Assay, Rescue (overall yes/no) [1]: yes

CCCCC[C@@H](C)N(C)CCC(=O)O.Cl [R-2-Heptyl-N-methyl (B-Alanines), (R)-3-(2-Heptylmethylamino)propionic acid hydrochloride]
Rescue by Amino Acids and Esters in the CGC Assay, 10^−6 M [1, 2]: R | Rescue by Amino Acids and Esters in the CGC Assay, 10^−9 M [1, 3]: R | Rescue by Amino Acids and Esters in the CGC Assay, 10^−12 M [1, 4]: R | Rescue by Amino Acids and Esters in the CGC Assay, Rescue (overall yes/no) [1]: yes

CCC[C@@H](C)NCC#N [R-2-Pentyl (Acetonitriles), (R)-2-(2-Pentylamino)acetonitrile]
Rescue by Amino Nitriles in the CGC Assay, 10^−9 M [1, 3]: R | Rescue by Amino Nitriles in the CGC Assay, Rescue (overall yes/no) [1]: yes

CCC[C@@H](C)NCCP(=O)(O)O [R-2-Pentyl (Amino Phosphonic Acids), (R)-2-(2-Pentylamino)ethanephosphonic acid]
Rescue by Amino Phosphonic Acids in the CGC Assay, 10^−6 M [1, 2]: R | Rescue by Amino Phosphonic Acids in the CGC Assay, Rescue (overall yes/no) [1]: yes

CCCCC[C@H](C)NCCP(=O)(O)O.Cl [S-2-Heptyl (Amino Phosphonic Acids), (S)-2-(2-Heptylamino)ethanephosphonic acid hydrochloride]
Rescue by Amino Phosphonic Acids in the CGC Assay, 10^−9 M [1, 3]: R | Rescue by Amino Phosphonic Acids in the CGC Assay, 10^−12 M [1, 4]: R | Rescue by Amino Phosphonic Acids in the CGC Assay, Rescue (overall yes/no) [1]: yes

CCCCC[C@H](C)NCC(=O)O.Cl [S-2-Heptyl (Glycines), (S)-2-(2-Heptylamino)acetic acid hydrochloride]
Rescue by Amino Acids and Esters in the CGC Assay, 10^−6 M [1, 2]: R | Rescue by Amino Acids and Esters in the CGC Assay, 10^−9 M [1, 3]: R | Rescue by Amino Acids and Esters in the CGC Assay, 10^−12 M [1, 4]: R | Rescue by Amino Acids and Esters in the CGC Assay, Rescue (overall yes/no) [1]: yes

(S)-2-(2-Heptylamino)ethane-5-tetrazole hydrochloride [S-2-Heptyl (Amino Tetrazoles)]
Rescue by Amino Tetrazoles in the CGC Assay, Rescue (overall yes/no) [1]: no
